Literature values as cited in US6642179B2, “Inhibition of vegetative growth” (priority 2000, dated 2003).

Tested on: grass
Details: versus 5-acetamido-2-methyltrifluoromethanesulfonanilide

CC(=O)Nc1cc(NS(=O)(=O)C(F)(F)F)c(C)cc1C [5-acetamido-2,4-dimethyltrifluoromethanesulfonanilide]
effectiveness as grass growth regulator compared with 5-acetamido-2-methyltrifluoromethanesulfonanilide: much more effective grass growth regulator
